Laboratory results as given in patent EP4623912A1, “A METHOD FOR DEFATTENING A STEATOTIC LIVER EX VIVO” (ETH Zurich, priority 2024, dated 2025).

Key:
[1] = system: male C57BL/6N wild-type mice; assay: HFD-induced hepatic steatosis (NAFLD) mouse model; format: in vivo; conditions: HFD 12 weeks
Method: Male mice were used for NAFLD induction via feeding on HFD. ROSA26-LSL-spCas9 mice were injected with AAV-U6-Cu/7 gRNAs-TBG-Cre and AAV-U6-Fbxw8 gRNAs-TBG-Cre virus pools at a dose of 3×10^11 genome copies/mouse and fed in HFD for 12 weeks and livers were harvested after 6 hours fasting. To study PI4KB in NAFLD progression, male ROSA26-LSL-spCas9 mice were fed in HFD for 12 weeks to induce fatty liver before induction of hepatocyte specific depletion of PI4KB via intravenous administration of AAV8. After another 8 weeks, mice were dissected to harvest liver after 6 hours fasting. Likewise, male C57BL/6N wild-type mice and liver specific Atgl knockout mice (AtgILKO) were challenged with HFD for 12 weeks to induce fatty liver prior to administration of UCB9608 mixed in HFD (5 mg/kg) for another 8 weeks. Then the mice were dissected to harvest tissues and sample blood after 6 hours fasting Atgl floxed mice (The Jackson Lab strain) were crossed with Albumin-Cre (The Jackson Lab strain) and Adip-CreERT2 strains to obtain Alb-Atgfl^fl/fl and AdipcreERT2-Atgl^fl/fl mice (Sitnick,M.T. et al, Diabetes 62, (2013)), which deplete ATGL protein in the liver and the adipose depots (induced after tamoxifen gavage), respectively. Male mice from both strains were injected with 2-DG (2 g/kg BW) to induce glucose deprivation for 6 hours prior to tissue and blood harvesting.
Adipose depots, liver pieces, differentiated iBAs, HepG2, HEK293T and HEK293-AAV cell types were homogenized in RIPA buffer (50 mM Tris-HCl pH 7.4, 150 mM NaCl, 2 mM EDTA, 1.0% Triton X100, 0.5% sodium deoxycholate) with protease inhibitors (Complete, Roche) and phosphatase inhibitors (Halt phosphatase inhibitor cocktail, ThermoFisher). The homogenates were centrifuged at 12,000×g for 10 min at 4°C to remove debris and collect whole cell extract (WCE). The concentration of WCE was determined by DC Protein Assay (Bio-Rad). After boiling the sample with Lämmeli buffer at 95°C for 5 min, equal amount of proteins was loaded and separated on 12% SDS-PAGE. The proteins were transferred to nitrocellulose membrane and blotted by ATGL (1:1000, Cell Signaling), CGI-58 (1:1000, Proteintech), phospho-HSL(Ser660) (1:1000, Cell Signaling), PLIN1 (1:1000, Cell Signaling), HSL (1:1000, Cell Signaling), γ-tubulin (1:10000, Sigma), FLAG (1:10000, Sigma; 1:1000, Cell Signaling), MGL (1:1000, Abcam), HA (1:1000, Cell signaling), FBXW8 (1:100, Santa Cruz; 1:1000, Sigma), CUL7 (1:100, Santa Cruz), HSP90 (1:1000, Cell Signaling), K48 polyubiquitin (1:1000, Cell signaling), PI4KB (1:1000, Sigma), SACM1L (1:1000, Sigma), AKT1 (1:1000, Cell Signaling), phospho-AKT1(Ser473) (1:1000, Cell Signaling), TGN46 (1:1000, Abcam), MAOA (1:1000, Abcam), PLIN2 (1:1000, Abcam), PMP70 (1:10000, Sigma), Calnexin (1:1000, Cell Signaling), ARF1 (1:1000, Invitrogen), GAPDH (1:1000, Cell Signaling), RAB7 (1:1000, Cell Signaling), alpha 1 Sodium Potassium ATPase (1:1000, Abcam), Cleaved Caspase-3 (1:1000, Cell Signaling), phospho-AMPKα (Thr172) (1:1000, Cell Signaling), AMPKα (1:1000, Cell Signaling) and GM130 (1:1000, Proteintech). […]
Plasma collected from mice under different conditions was used to determine levels of lipolysis and liver injury. FFA levels were measured via NEFA assay kit (Wako NEFA kit). TG levels were determined via TG assay kit (Roche Trig/GB reagent). […] The absorbance was monitored using Synergy Gen5 Platereader.
Weight of liver pieces (50-100 mg) was recorded before homogenization by 1 mL isopropanol per 50 mg tissue. […]

C57BL/6N male mice = assay: Indirect calorimetry in HFD-fed mice; format: in vivo, mouse; conditions: HFD mixed with UCB9608 (5 mg/kg) 3 weeks, vs DMSO
Method: 8-10 weeks old C57BL/6N male mice were fed on HFD mixing with DMSO or UCB9608 (5 mg/kg) for 3 weeks before indirect calorimetry measurements were performed with Phenomaster (TSE systems) according to the manufacturer's instructions. Animals were single caged and adapted to the metabolic cage for 48h prior to metabolic recording. The energy expenditure between both groups was analyzed via ANCOVA method and RER was analyzed via two-way ANOVA method.

[2] = then UCB9608 in HFD (5 mg/kg) 8 weeks, vs DMSO

COc1ccc(NC(=O)N2CCN(c3nc(N)nc4c3cnn4C)[C@@H](C)C2)c(C)c1 [UCB9608]
ATGL protein levels in the gWAT [1, 2]: significantly greater | ATGL protein levels in the iBAT [1, 2]: significantly greater | ATGL protein levels in the liver [1, 2]: significantly greater | hepatic steatosis (hepatic TG levels) ([1]; then UCB9608 in HFD (5 mg/kg) 8 weeks, requires ATGL in the liver (Fig. 6h)): substantially attenuated | plasma FFA levels ([1]; then UCB9608 mixed in HFD (5 mg/kg) 8 weeks, vs DMSO (Fig. 6g)): significantly increased | energy expenditure (C57BL/6N male mice): higher
